The structures appear in SMILES notation. Like-named read-outs stand apart in the source and are kept apart here.

The values that follow come from PMC7504735, “Enhanced Antigiardial Effect of Omeprazole Analog Benzimidazole Compounds” (Molecules, 2020).

Data set [1] relates to Giardia lamblia trophozoites. Set-up: method as in PMID 28798383. Particulars: previously reported; cited from earlier work.
Data set [2] has as its target T1, triosephosphate isomerase (TPI) (Giardia intestinalis, UniProt P36186).
T1 construct: His-tag (TEV-cleavable) (cleaved yes); made in house
Also noted: method as in PMID 28798383. Particulars: previously reported; cited from earlier work.

Data set [3] has as its target T1, triosephosphate isomerase (TPI). The settings on record: cited from earlier work.
For data set [4] the target is unchanged. Also noted: method as in PMID 28798383. Particulars: BHO2 comparison; cited from earlier work.
Another data set has as its system VERO cells. Also noted: method as in PMID 28798383. The settings on record: cited from earlier work.
For data set [5], the system named is Giardia lamblia trophozoites. Put plainly: Antigiardial activity on G. lamblia trophozoites, trypan blue dye exclusion. The data set is classed as cell-based. The settings on record: Giardia duodenalis, 48 h at 37 °C, pH 7.4, trypan blue. How it is done:
Giardia lamblia WB strain (ATCC number 30957) was grown in a modified TYI-S-33 medium supplemented with 10% fetal bovine serum. The parasite was cultivated in 15 mL screw-capped borosilicate glass tubes containing 13 mL medium. The tubes were incubated on a 15° horizontal slant at 37 °C. Giardia was harvested from confluent culture by chilling the tubes on ice for 5‒10 min to detach cells, followed by centrifugation at 800× g for 5 min.
The antigiardial activity of the prepared compounds was tested as described. One milligram of a test compound was dissolved in 10 L of DMSO and topped up with 1 mL growth medium. The solution was filter-sterilized using 0.22-m syringe filters and the appropriate volumes of the solutions were taken to prepare the concentration of each compound in 1.5 mL microtubes. For each preparation, concentrations of 500, 250, 125, 62, and 31 µg/mL were prepared in a final volume of 1.5 mL. Each tube was inoculated with 5 × 10^4 trophozoites of G. lamblia and then incubated for 48 h at 37 °C. After incubation, 75 L of the treated trophozoites were subcultured individually for another 48 h in a fresh medium free of compounds. At the end of this period, the viable trophozoites were counted. Each compound was assayed in duplicate in three independent experiments. In each assay, appropriate controls were also tested, including a sample without compound and another with DMSO.
The parasites in each tube were counted using a standard hemocytometer at 10× objective. In each count, trypan blue was employed to distinguish live parasites from dead ones. To permit detachment of Giardia, the tubes were placed on ice for 10 min and the parasites were then centrifuged at 800× g for 10 min. The supernatant was discarded and 1 mL fresh medium was added to each tube. The final suspension was prepared by mixing 25 μL of the parasite suspension in each tube with 100 μL of 0.4% trypan blue in phosphate-buffered saline (PBS). The 50% inhibitory concentration (IC50) was employed as a parameter for biological activity. The IC50 is the concentration of compounds that cuts the number of parasites to half that in the negative control (growth medium + DMSO + parasites). Lastly, the 50% inhibitory concentration (IC50) was calculated.

The target of data set [6] is T1, triosephosphate isomerase (TPI). The data set is described as follows: Inactivation of recombinant TPI enzyme with compounds. The data set is classed as biochemical. The method, then:
The TPI from G. lamblia was expressed and purified. […] When the culture reached A600 = 0.8, it was induced using 0.4 mM IPTG and incubated overnight at 30 °C with shaking at 180 rpm. After the bacteria were collected by centrifugation (10,000× g, 15 min) and suspended in 40 mL of lysis buffer, pH 8.0 (50 mM Tris, 50 mM NaCl, 5 mM β-mercaptoethanol, and 1 mM phenylmethylsulfonyl fluoride). The bacterial suspension was disrupted by sonication and centrifuged at 9000× g for 1 h at 4 °C. Protein purification was performed by immobilized metal affinity chromatography (IMAC) using a Profinity Ni^2+ charged resin (Bio-Rad) previously reported by Enriquez-Flores et al.. The His-tag sequence was removed from the TIM by incubation with TEVP at a molar ratio of 30:1 (TPI/TEVP) at room temperature for 17 h in digestion buffer, pH 8.0 (50 mM Tris, 0.5 mM ethylene diamine tetraacetic acid (EDTA), and 1 mM dithiothreitol). The enzyme concentration was spectrophotometrically determined at 280 nm, and the enzyme was used immediately.
Enzyme activity of TPI was determined spectrophotometrically as described by monitoring the conversion of glyceraldehyde-3-phosphate (GAP) to dihydroxyacetone phosphate (DHAP). […] The standard reaction mixture contained 1 mM GAP, 0.2 mM NADH, and 0.9 units/mL of α-GDH in TE buffer (100 mM triethanolamine, 10 mM EDTA, pH 7.4). The reaction was initiated by adding 5 ng/mL of TPI to the reaction mixture.
To determine the inactivation of the TPI enzyme from G. lamblia, we performed inactivation assays of the enzyme in the presence of the synthesized compounds. The compounds’ stock solutions were freshly prepared using 100% dimethyl sulfoxide (DMSO) as the solvent at 25 mM. […] After the incubation period, the enzymatic activity was measured by withdrawing an aliquot of each experimental condition, as described above. The results were expressed in terms of the percentage of activity versus the compound’s concentration.

T1 sequence (P36186 whole entry): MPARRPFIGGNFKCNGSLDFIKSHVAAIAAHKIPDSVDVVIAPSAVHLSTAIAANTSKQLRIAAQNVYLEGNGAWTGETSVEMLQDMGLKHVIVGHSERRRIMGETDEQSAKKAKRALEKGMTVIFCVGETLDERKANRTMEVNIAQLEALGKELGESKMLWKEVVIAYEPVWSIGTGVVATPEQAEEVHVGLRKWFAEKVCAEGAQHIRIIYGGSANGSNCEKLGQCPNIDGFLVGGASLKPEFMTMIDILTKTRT

Consider `COc1c(C)cnc(C[S+]([O-])c2nc3ccc(C)cc3[nH]2)c1C` (stereo not drawn) [BHO2], for which the IC50 is 120 µM in data set [1] and 64 µM in data set [2]. The “Second-order inactivation constant k2” value in data set [3] (previously reported) was 1.6 M⁻¹ s⁻¹. In data set [4], the “Loss of intrinsic fluorescence signal of TPI” value is on record as 25%. In the data set on VERO cells, the “CC50 for mammal cells (VERO)” value was “millimolar ranges”.
With `[O-][S+](Cc1ccccn1)c1nc2ccccc2[nH]1` (stereo not drawn) [H-BZM1], the IC50 in data set [5] is 676 µM; in data set [6] it was above 500 µM. Also, the “Loss (reduction) of TPI enzyme activity” value in data set [6] (500 µM compound, 2 h at 37 °C) stood at 25%.
For the compound `COc1ccc2[nH]c([S+]([O-])Cc3ncc(C)c(OC)c3C)nc2c1` (stereo not drawn) [Omeprazole], the figures for the IC50 in data set [1] and in data set [2] were 300 µM and 225 µM, respectively. Besides, in data set [3] (previously reported), the “Second-order inactivation constant k2” value is 0.78 M⁻¹ s⁻¹.
In the case of `COCCCOc1ccnc(C[S+]([O-])c2nc3ccccc3[nH]2)c1C` (stereo not drawn) [rabeprazole], in data set [3] (reported by García-Torres et al.), the “Second-order inactivation constant k2” value is 2.66 M⁻¹ s⁻¹.

The term IC50 denotes the concentration needed to halve the response being measured.
